In the first experiment the test system is sPLA2-IIA secretion by LNCaP-AI cells. Kind of experiment: ELISA of sPLA2-IIA secreted into culture medium of LNCaP-AI cells. In kind it is cell-based, human. To be noted: inhibitor ~20 μM (CI-1033 ~8 μM), about 24 hours, FIG. 7. How it is done:
Finally, LNCaP-AI cells were starved in 1% stripped medium for about 24 hours. The cells were then treated with Erlotinib (˜20 μM), Gefitinib (˜20 μM), Lapatinib (˜20 μM), CI-1033 (˜8 μM), LY294002 (˜20 μM), and Bortezomib (˜20 μM) for about 24 hours. Cell culture medium was collected from each sample and subjected to ELISA for sPLA2-IIA. The condition medium samples were diluted 10 times for ELISA. The average of duplicate samples was converted to nanogram per milliliter against standard curve. The data represent one of five repeated experiments.
On to `CC(C)C[C@H](NC(=O)[C@H](Cc1ccccc1)NC(=O)c1cnccn1)B(O)O` [Bortezomib], for which the “effect on sPLA2-IIA secretion (ELISA of culture medium)” value (shortened to “effect on sPLA2-IIA secretion”) was “significantly inhibited”.
For the compound `C=CC(=O)Nc1cc2c(Nc3ccc(F)c(Cl)c3)ncnc2cc1OCCCN1CCOCC1` [CI-1033], the “effect on sPLA2-IIA secretion” value was “moderate effect”.
For `C#Cc1cccc(Nc2ncnc3cc(OCCOC)c(OCCOC)cc23)c1` [Erlotinib], the “effect on sPLA2-IIA secretion” value is given as “moderate effect”.
On to `COc1cc2ncnc(Nc3ccc(F)c(Cl)c3)c2cc1OCCCN1CCOCC1` [Gefitinib], for which the “effect on sPLA2-IIA secretion” value is listed as “moderate effect”.
Consider `CS(=O)(=O)CCNCc1ccc(-c2ccc3ncnc(Nc4ccc(OCc5cccc(F)c5)c(Cl)c4)c3c2)o1` [Lapatinib], for which the “effect on sPLA2-IIA secretion” value is recorded as “significantly inhibited”.

In another experiment the test system is sPLA2-IIA expression in LAPC-4 and DU145 cells. Kind of experiment: Western blot of sPLA2-IIA expression in LAPC-4 and DU145 cells. In kind it is cell-based, human. To be noted: Lapatinib ~20 μM, via blocking PI3K-Akt signaling, FIG. 5. (A western blot detects proteins with antibodies after separation by electrophoresis.)
Experimental: A reporter assay was performed by transiently transfecting sPLA2-IIA(-800)-Luc (˜0.25 μg/well) reporter in LNCaP-AI cells (˜10^5 cells/well in 12-well plate). The cells were then treated with epidermal growth factor (hereinafter “EGF”) (˜100 ng/mL) without or with EGFR inhibitors Erlotinib (˜20 μM) and Gefitinib (˜20 μM), EGFR/HER2 dual inhibitors Lapatinib (˜20 μM) and CI-1033 (˜8 μM), phosphoinositide 3-kinase (hereinafter “PI3K”) inhibitor LY294002 (˜20 μM), and NF-κB inhibitor Bortezomib (˜20 μM) for about 24 hours. A luciferase assay was performed according to a standard protocol with Renilla luciferase as an internal control. Another reporter assay was performed wherein LNCaP-AI cells were starved in 1% stripped medium for about 24 hours. […] Briefly, aliquots of samples with the same amount of protein, determined using the Bradford assay (BioRad, Hercules, Calif.), were mixed with loading buffer (final concentrations of 62.5 mM Tris-HCl, pH 6.8, 2.3% sodium dodecyl sulfate, 100 mM dithiothreitol, and 0.005% bromophenol blue), boiled, fractionated in a sodium dodecyl sulfate-polyacrylamide gel electrophoresis, and transferred onto a 0.45-μm nitrocellulose membrane (BioRad). […]
Regarding `CS(=O)(=O)CCNCc1ccc(-c2ccc3ncnc(Nc4ccc(OCc5cccc(F)c5)c(Cl)c4)c3c2)o1` [Lapatinib], the “effect on sPLA2-IIA expression in LAPC-4 and DU145 cells” value is recorded as “inhibited”.

The subject of another experiment is sPLA2-IIA protein expression in LNCaP-AI cells. Kind of experiment: Western blot of sPLA2-IIA protein expression in LNCaP-AI cells. Type of experiment: cell-based, human. To be noted: EGF ~100 ng/mL, about 24 hours, FIGS. 2 and 3. The procedure:
(§1) The role of sPLA2-IIA gene regulation in prostate cancer cells via the HER/HER2-PI3K-Akt-NF-κB pathway was investigated. A reporter assay was performed by transiently transfecting sPLA2-IIA(-800)-Luc (˜0.25 μg/well) reporter in LNCaP-AI cells (˜10^5 cells/well in 12-well plate). The cells were then treated with epidermal growth factor (hereinafter “EGF”) (˜100 ng/mL) without or with EGFR inhibitors Erlotinib (˜20 μM) and Gefitinib (˜20 μM), EGFR/HER2 dual inhibitors Lapatinib (˜20 μM) and CI-1033 (˜8 μM), phosphoinositide 3-kinase (hereinafter “PI3K”) inhibitor LY294002 (˜20 μM), and NF-κB inhibitor Bortezomib (˜20 μM) for about 24 hours. A luciferase assay was performed according to a standard protocol with Renilla luciferase as an internal control. Another reporter assay was performed wherein LNCaP-AI cells were starved in 1% stripped medium for about 24 hours. The cells were the treated with Erlotinib (˜20 μM), Gefitinib (˜20 μM), Lapatinib (˜20 μM), CI-1033 (˜8 μM), LY294002 (˜20 μM), Bortezomib (˜20 μM), and/or Heregulin-α (˜50 ng/mL) without or with EGF (˜100 ng/mL) for about 24 hours.
Cell extracts were then prepared and subjected to western blot analysis for sPLA2-IIA, P-Akt, Akt, and β-actin. Briefly, aliquots of samples with the same amount of protein, determined using the Bradford assay (BioRad, Hercules, Calif.), were mixed with loading buffer (final concentrations of 62.5 mM Tris-HCl, pH 6.8, 2.3% sodium dodecyl sulfate, 100 mM dithiothreitol, and 0.005% bromophenol blue), boiled, fractionated in a sodium dodecyl sulfate-polyacrylamide gel electrophoresis, and transferred onto a 0.45-μm nitrocellulose membrane (BioRad). The filters were blocked with 2% fat-free milk in PBS, and probed with primary antibody in phosphate buffered saline containing 0.1% Tween 20 (i.e., PBST) and 1% fat-free milk. The membranes were then washed four times in PBST and incubated with horseradish peroxidase-conjugated secondary antibody (BioRad) in PBST containing 1% fat-free milk. After washing four times in PBST, the membranes were visualized using the ECL Western Blotting Detection System (Amersham Co, Arlington Height, Ill.).
Turning to EGF: epidermal growth factor, the “sPLA2-IIA expression (western blot), stimulation by EGF” value was “stimulated sPLA2-IIA expression”.

The same experiment, now with this note: basal states and EGF-induced expression, inhibitor ~20 μM (CI-1033 ~8 μM), about 24 hours, FIGS. 2-4.
Take `CC(C)C[C@H](NC(=O)[C@H](Cc1ccccc1)NC(=O)c1cnccn1)B(O)O` [Bortezomib]: the “effect on sPLA2-IIA protein expression” value is “dramatically downregulated”.
As for `C=CC(=O)Nc1cc2c(Nc3ccc(F)c(Cl)c3)ncnc2cc1OCCCN1CCOCC1` [CI-1033], the “effect on sPLA2-IIA protein expression” value was “moderate impact”.
Regarding `C#Cc1cccc(Nc2ncnc3cc(OCCOC)c(OCCOC)cc23)c1` [Erlotinib], the “effect on sPLA2-IIA protein expression” value was “moderate impact”.
Consider `COc1cc2ncnc(Nc3ccc(F)c(Cl)c3)c2cc1OCCCN1CCOCC1` [Gefitinib], for which the “effect on sPLA2-IIA protein expression” value is on record as “moderate impact”.
Still for that read-out and setting: with `CS(=O)(=O)CCNCc1ccc(-c2ccc3ncnc(Nc4ccc(OCc5cccc(F)c5)c(Cl)c4)c3c2)o1` [Lapatinib] the entry was “dramatically downregulated”.

A further experiment deals with sPLA2-IIA gene promoter. Kind of experiment: sPLA2-IIA(-800)-Luc reporter (luciferase) assay in LNCaP-AI cells. To be noted: EGF ~100 ng/mL with inhibitor ~20 μM (CI-1033 ~8 μM), about 24 hours, FIG. 1. In kind it is cell-based, human. How it is done: as §1
On to `CC(C)C[C@H](NC(=O)[C@H](Cc1ccccc1)NC(=O)c1cnccn1)B(O)O` [Bortezomib], for which the “effect on EGF-stimulated promoter activity of sPLA2-IIA gene” value (“effect … of sPLA2-IIA gene” for short) is “blocked”.
On the same count and under the same terms, then `C=CC(=O)Nc1cc2c(Nc3ccc(F)c(Cl)c3)ncnc2cc1OCCCN1CCOCC1` [CI-1033], with “blocked”; and `C#Cc1cccc(Nc2ncnc3cc(OCCOC)c(OCCOC)cc23)c1` [Erlotinib], with “blocked”.
As to `COc1cc2ncnc(Nc3ccc(F)c(Cl)c3)c2cc1OCCCN1CCOCC1` [Gefitinib], the “effect … of sPLA2-IIA gene” value is “blocked”.
In the case of `CS(=O)(=O)CCNCc1ccc(-c2ccc3ncnc(Nc4ccc(OCc5cccc(F)c5)c(Cl)c4)c3c2)o1` [Lapatinib], the “effect … of sPLA2-IIA gene” value is “blocked”.

Still in this experiment, the particulars now being: EGF ~100 ng/mL, about 24 hours, FIG. 1.
As for EGF: epidermal growth factor, the “promoter activity of sPLA2-IIA gene” value is reported as “significantly stimulated”.

For the origin of these results see patent US20130095503A1, “SERUM SPLA2-IIA AS DIAGNOSIS MARKER FOR PROSTATE AND LUNG CANCER” (UNIVERSITY OF CINCINNATI, priority 2010, published 2013).
